These results are taken from PubChem BioAssay (NCI).

The structures appear in SMILES notation.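 96-well plates; 48 h exposure; 5 concentrations. Endpoints by linear interpolation between flanking doses. Not reached: highest tested concentration assigned. Abbreviation: GI50, concentration required for 50% inhibition of growth. The concentration for full growth arrest is given as TGI.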 Where only a bound is given, the exact number is not on record here.

What all share (experiment): inhibition of tumour cell growth, NCI panel, 48 h
Experiment [1] concerns T-47D breast.
Experiment [2] has as its system MDA-N.
Experiment [3] has as its system DMS 273 small cell lung.
For experiment [4], the system named is XF 498 CNS.
Experiment [5] relates to HOP-18 NSCLC.
Experiment [6] concerns M19-MEL melanoma.
Experiment [7] deals with DMS 114 small cell lung.
Experiment [8] concerns DLD-1 colon.

In the case of `Cc1ccc(S(=O)(=O)Oc2ccc([N+](=O)[O-])cc2[N+](=O)[O-])cc1`, in experiment [1], the GI50 was 15.3 µM and the TGI turned out to be 45 µM.

For the compound `Sc1ccc2ccccc2c1CNCc1ccccc1`, the TGI in experiment [1] was above 100 µM; in experiment [2], 37.6 µM.

For `O=c1c(-c2ccccc2)c2oc(c1-c1ccccc1)CS(=O)(=O)CCC2`, the TGI was 58.3 µM in experiment [3]; 24.7 µM in experiment [4]; above 100 µM in experiment [5]; 30.7 µM in experiment [6]; above 100 µM in experiment [7]; 58.8 µM in experiment [8].

As for `COc1ccc(/C=N/N=C(\N)NO)c(Cl)c1O`, the TGI in experiment [5] was 54.2 µM; in experiment [6] it was 53.3 µM; in experiment [7], above 100 µM; in experiment [8] it was above 100 µM.

`N.N.N.N.O=NN1CCCCCC1(P(=O)([O-])[O-])P(=O)([O-])[O-].[Pt+4].[Pt+4]`: the GI50 in experiment [3], in experiment [5] and in experiment [8] was above 100 µM in each case. For the same compound, the TGI in experiment [3], in experiment [5] and in experiment [8] was above 100 µM in each case.

`COC(=O)NC1(NC(=O)OC)NC(=O)c2cc(OC)c(OC)cc2N1`: the results for the TGI in experiment [1] and in experiment [2] were above 100 µM and 16 µM, respectively.

For `CCOC(=O)C1(C#N)C(c2ccccc2)CC(O)(c2ccc([N+](=O)[O-])cc2)C(C(=O)c2ccc([N+](=O)[O-])cc2)C1c1ccccc1` (stereo unspecified), the TGI in experiment [3], in experiment [4], in experiment [5], in experiment [6], in experiment [7] and in experiment [8] was above 100 µM throughout.

As for `COc1cc2c(F)nccc2cc1C(=O)N[C@@H](c1ccc(F)c(Cl)c1)[C@@H]1C[C@@H](O)CN1`, in experiment [1], the GI50 was 0.0552 µM and the TGI is 21.3 µM.

Consider `CCN1C(=O)N(CC)C2C1NN=c1s/c(=C\c3ccccc3F)c(=O)n12` (stereo unspecified), for which, in experiment [1], the GI50 is 35.7 µM and the TGI was above 100 µM.

Consider `Cc1ccc(-n2c3nc(=O)n(C)c(=O)c-3nc3ccccc32)cc1`, for which the TGI in experiment [3] was 20.1 µM; in experiment [4], 55.9 µM; in experiment [5], 40.4 µM; in experiment [7] it was 27.6 µM; in experiment [8], above 100 µM.

On to `CCC(=O)C1(c2ccccc2)CCN(C)CC1`, for which the TGI in experiment [1] and in experiment [2] was above 100 µM throughout.

Consider `Cc1cc(C(=O)Nc2nc3cccc(Cl)c3n2[C@@H]2CCCCN(C(=O)/C=C/CN(C)C)C2)ccn1`, for which, in experiment [1], the GI50 is 1.5 µM and the TGI was found to be 23.7 µM.

For `CCOC(CCCNCCCn1c2c(c3cc(OC)c(OC)cc3c1=O)C(=O)c1cc3c(cc1-2)OCO3)OCC`, in experiment [1], the GI50 was 7.76 µM and the TGI was 14.4 µM.

In the case of `CC(C)CCSC1=CC(=O)c2ccccc2C1=O`, in experiment [1], the GI50 was 1.19 µM and the TGI amounted to 3.51 µM.

Take `CCc1c2c(nc3cc4c(c(N)c13)OCO4)-c1cc3c(c(=O)n1C2)COC(=O)[C@]3(O)CC`: the GI50 in experiment [1] is below 0.001 µM. This compound had a TGI in experiment [2] above 100 µM.

As to `O=C(CSc1nc2ccccc2nc1-c1ccccc1)Nc1ccc(Cl)cc1`, in experiment [1], the GI50 is 13 µM and the TGI was above 100 µM.

As for `O=C1OC(c2ccccc2)=N/C1=C\c1ccc2ccccc2c1`, the TGI in experiment [4], in experiment [5], in experiment [6], in experiment [7] and in experiment [8] was above 100 µM in each case.

For the compound `CC(C)CC1C(=O)N2CCC[C@H]2C2(O)O[C@](NC(=O)C3C=C4c5cccc6[nH]c(Br)c(c56)C[C@H]4N(C)C3)(C(C)C)C(=O)N12` (stereo partly specified), in experiment [1], the GI50 is 2.9 µM and the TGI is above 100 µM.

In the case of `O=C1/C=C/[C@@H](O)[C@@H]2C[C@@H](O)C[C@H]2/C=C/CCC[C@H](CCc2ccc(C(F)(F)F)cc2)O1`, in experiment [1], the GI50 was 0.318 µM and the TGI came to 59.8 µM.

For the compound `CO/[N+]([O-])=C\C(=O)N/C=C/C(=O)O`, the TGI in experiment [1] and in experiment [2] was above 100 µM throughout.

For `O=C(Nc1cccc(NC(=O)C(=O)C2CCC3=C(Sc4ccccc4N3)C2=O)n1)C(=O)C1CCC2=C(Sc3ccccc3N2)C1=O` (stereo unspecified), the TGI in experiment [1] and in experiment [2] was above 100 µM throughout.

For the compound `Cc1ncc(C(=O)Nc2ccc(CN3CCN(C)CC3)c(C(F)(F)F)c2)cc1C#Cc1cnc(N)c2cnccc12`, in experiment [1], the GI50 was 0.317 µM and the TGI is above 32.8 µM.

For `O=C1/C(=C\c2ccc(F)cc2)CN(C(=O)c2ccc([N+](=O)[O-])cc2)C/C1=C\c1ccc(F)cc1`, in experiment [1], the GI50 was 6.61 µM and the TGI is above 100 µM.

As to `O=c1cc(-c2ccccc2)oc2cc(OCC(O)COc3ccc4c(=O)cc(-c5ccccc5)oc4c3)ccc12`, the TGI is above 100 µM in experiment [3]; 48.1 µM in experiment [4]; above 100 µM in experiment [5]; above 100 µM in experiment [6]; above 100 µM in experiment [7]; above 100 µM in experiment [8].

As for `O=C(CCCCCCCn1cc(-c2cccnc2)nn1)Nc1ccccc1-c1ccccc1`, in experiment [1], the GI50 was 1.44 µM and the TGI came to 28 µM.

As for `NCCCCCCCCn1c2c(c3ccccc3c1=O)C(=O)c1ccccc1-2`, in experiment [1], the GI50 was 4.97 µM and the TGI turned out to be 36.6 µM.

Regarding `CN(C)CCCNC(=O)c1ccc2oc3cc4ccccc4c(=O)n3c2c1`, in experiment [1], the GI50 was above 50 µM and the TGI is above 50 µM.

With `COc1ccc(CCN2CCCN3C2=Nc2ccccc2S3(=O)=O)cc1`, in experiment [1], the GI50 was 0.56 µM and the TGI was above 100 µM.

For the compound `C[C@@H](N)C1CCC(C(=O)Nc2ccncc2)CC1` (stereo partly specified), in experiment [1], the GI50 was above 100 µM and the TGI is above 100 µM.

For the compound `N=C(N)/N=C(\N)c1c(-c2cc(O)ccc2O)nc2sccn12`, in experiment [1], the GI50 is 20.7 µM and the TGI is 45.1 µM.

As to `CCOC(=O)C(Cc1c[nH]c2ccc([N+](=O)[O-])cc12)(NC(C)=O)C(=O)OCC`, in experiment [1], the GI50 was 50.1 µM and the TGI was above 1000 µM.
